Literature values, collected in patent US12544334B2, “Metabolisable pH sensitive polymersomes” (UCL BUSINESS LTD, priority 2018, dated 2026).

Details: imidazole-bearing acid before conjugation to the cysteine N-terminus

Row | Compound | pKa
1 | O=C(O)Cc1c[nH]cn1 [4-imidazolacetic acid] | 6.6
2 | O=C(O)Cn1ccnc1 [1H-imidazole-1-acetic acid] | 6.8
